Experimental data taken from patent publication US20260297060A1, “COMPOUNDS FOR THE DEGRADATION OF MUTANT BRAF” (C4 THERAPEUTICS, INC., priority 2023, published 2026).
Read-outs that look alike come from different tables or passages of the source.

How the values were obtained:
A375-NRAS^Q61K cells = test: CTGlo Cell Viability Assay, A375-NRAS^Q61K (A375.11) cells, 96 hours; type: cell-based, human; conditions: A375.11 (A375-NRAS^Q61K) cells; for CTGlo A375.11 96 hours Emax / Emax: lowest % viability achieved
Procedure, shortened: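 A375 cells carrying BRAF V600E and NRAS Q61K were seeded at 250 cells/well with a 10-point half-log dose series (max 10 μM final). After 96 h at 37 °C, viability was read as ATP luminescence (CellTiter-Glo), background-subtracted and normalized to DMSO (100%). GI50 from 4-parameter fit; Emax is the lowest % viability.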

BRAF V600E = biological target: T1, BRAF V600E (Homo sapiens, UniProt P15056+Q96SW2, V600E); test: BRAF V600E HiBiT Degradation Assay; type: cell-based; conditions: A375.10 cells, BRAF V600E
T1 construct: knock-in of the HiBiT tag to the endogenous BRAF V600E locus; host or cells: A375.10 (A375 clonal line, CRISPR HiBiT knock-in at the endogenous BRAF V600E locus)
T1 sequence (P15056 whole entry V600E): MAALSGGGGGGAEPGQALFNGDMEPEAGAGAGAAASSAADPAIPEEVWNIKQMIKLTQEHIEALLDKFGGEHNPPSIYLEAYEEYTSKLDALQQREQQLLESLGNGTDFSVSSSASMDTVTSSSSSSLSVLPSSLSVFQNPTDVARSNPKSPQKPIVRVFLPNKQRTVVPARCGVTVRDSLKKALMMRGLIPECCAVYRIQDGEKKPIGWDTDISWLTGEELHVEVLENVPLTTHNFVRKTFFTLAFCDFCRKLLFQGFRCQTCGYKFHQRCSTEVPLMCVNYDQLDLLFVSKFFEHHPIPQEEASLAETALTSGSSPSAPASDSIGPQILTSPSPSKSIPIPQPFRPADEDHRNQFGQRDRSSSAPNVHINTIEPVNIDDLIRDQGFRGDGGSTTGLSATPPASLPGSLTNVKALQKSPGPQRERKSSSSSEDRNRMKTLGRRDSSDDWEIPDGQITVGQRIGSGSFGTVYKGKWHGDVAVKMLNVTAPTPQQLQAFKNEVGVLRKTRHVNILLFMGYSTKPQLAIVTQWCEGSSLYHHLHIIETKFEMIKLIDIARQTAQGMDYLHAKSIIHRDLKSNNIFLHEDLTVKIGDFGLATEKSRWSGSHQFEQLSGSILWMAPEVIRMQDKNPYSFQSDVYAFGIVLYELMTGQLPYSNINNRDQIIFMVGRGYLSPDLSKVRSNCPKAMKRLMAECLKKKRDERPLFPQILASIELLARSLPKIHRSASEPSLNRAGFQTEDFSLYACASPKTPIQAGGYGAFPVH
T1 sequence (Q96SW2 whole entry): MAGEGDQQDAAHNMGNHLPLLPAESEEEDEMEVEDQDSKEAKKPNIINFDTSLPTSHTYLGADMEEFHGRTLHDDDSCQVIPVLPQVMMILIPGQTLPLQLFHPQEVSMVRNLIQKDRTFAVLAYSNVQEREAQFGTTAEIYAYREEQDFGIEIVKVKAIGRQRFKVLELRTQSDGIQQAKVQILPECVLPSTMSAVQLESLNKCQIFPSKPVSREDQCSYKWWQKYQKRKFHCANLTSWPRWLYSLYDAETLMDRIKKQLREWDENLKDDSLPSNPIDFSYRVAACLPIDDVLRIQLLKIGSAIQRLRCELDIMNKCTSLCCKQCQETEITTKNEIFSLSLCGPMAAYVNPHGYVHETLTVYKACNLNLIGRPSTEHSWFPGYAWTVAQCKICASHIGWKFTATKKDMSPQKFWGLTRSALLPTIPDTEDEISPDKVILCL
T1 sequence (Q16531 whole entry partner): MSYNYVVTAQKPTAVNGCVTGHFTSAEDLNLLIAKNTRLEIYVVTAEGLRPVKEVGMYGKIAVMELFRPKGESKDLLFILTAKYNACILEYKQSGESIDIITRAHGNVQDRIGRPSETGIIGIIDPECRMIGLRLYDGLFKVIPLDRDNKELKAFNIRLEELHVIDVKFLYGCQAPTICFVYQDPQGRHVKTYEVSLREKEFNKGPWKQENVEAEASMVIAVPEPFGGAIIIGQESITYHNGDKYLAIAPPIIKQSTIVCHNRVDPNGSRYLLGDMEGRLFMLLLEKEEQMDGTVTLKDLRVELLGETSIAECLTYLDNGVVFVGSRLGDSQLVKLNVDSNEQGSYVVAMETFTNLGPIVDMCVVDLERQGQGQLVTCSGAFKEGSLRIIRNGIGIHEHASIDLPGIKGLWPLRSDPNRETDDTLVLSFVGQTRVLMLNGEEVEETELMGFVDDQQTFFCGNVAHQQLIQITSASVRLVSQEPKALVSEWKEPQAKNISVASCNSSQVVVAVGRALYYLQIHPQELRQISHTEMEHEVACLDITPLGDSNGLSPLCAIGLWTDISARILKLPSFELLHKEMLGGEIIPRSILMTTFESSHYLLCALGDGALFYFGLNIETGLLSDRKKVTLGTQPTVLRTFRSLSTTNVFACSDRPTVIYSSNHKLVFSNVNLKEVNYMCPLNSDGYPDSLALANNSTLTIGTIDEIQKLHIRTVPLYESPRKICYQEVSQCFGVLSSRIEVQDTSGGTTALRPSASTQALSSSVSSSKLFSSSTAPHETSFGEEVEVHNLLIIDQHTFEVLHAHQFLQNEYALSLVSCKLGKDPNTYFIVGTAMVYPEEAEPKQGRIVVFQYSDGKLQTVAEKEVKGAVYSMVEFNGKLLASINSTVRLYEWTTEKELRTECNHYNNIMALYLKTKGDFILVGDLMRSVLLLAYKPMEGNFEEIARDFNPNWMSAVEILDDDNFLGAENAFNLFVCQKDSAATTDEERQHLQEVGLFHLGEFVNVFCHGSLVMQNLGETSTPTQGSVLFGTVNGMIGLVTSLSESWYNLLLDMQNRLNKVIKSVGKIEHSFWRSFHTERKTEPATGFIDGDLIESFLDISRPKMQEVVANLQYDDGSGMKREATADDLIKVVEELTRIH
Procedure, shortened: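 Endogenous HiBiT knock-in on BRAF V600E in A375 cells (clone A375.10); 11-point half-log series, top 10 μM, 2, 6 or 24 h at 37° C. Lytic HiBiT luminescence, background-subtracted, normalized to DMSO; 4-parameter fit gives DC50, Emax (residual protein) and IP (inflection point).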

[1] = 2 hours, inflection point, read-out: HiBiT-Degradation A375.10 BRAF 2 hours IP
[2] = 2 hours, read-out: HiBiT-Degradation A375.10 BRAF 2 hours DC50
[3] = 2 hours, residual protein remaining
[4] = 2 hours, residual protein remaining, read-out: HiBiT-Degradation A375.10 BRAF 2 hours Emax

Compound	GI50 (A375-NRAS^Q61K cells)	CTGlo A375.11 96 hours Emax (A375-NRAS^Q61K cells)	DC50 (BRAF V600E; [1])	DC50 (BRAF V600E; [2])	HiBiT-Degradation A375.10 BRAF 2 hours Emax (BRAF V600E; [3])	GI50 (A375-NRAS^Q61K cells; Homo sapiens, 96 h)	Emax (A375-NRAS^Q61K cells; Homo sapiens, 96 h)	Emax (BRAF V600E; [4])	DC50 (BRAF V600E; HiBiT, 24 hours, read-out: HiBiT-Degradation A375.10 BRAF 24 hours DC50)	Emax (BRAF V600E; HiBiT, 24 hours, read-out: HiBiT-Degradation A375.10 BRAF 24 hours Emax)	DC50 (BRAF V600E; HiBiT, 24 hours, read-out: HiBiT-Degradation A375.10 BRAF 24 hours IP)	DC50 (BRAF V600E; read-out: HiBiT-Degradation A375.10 BRAF 2 hours DC50, 2 hours)	DC50 (BRAF V600E; read-out: HiBiT-Degradation A375.10 BRAF 2 hours IP, 2 hours, inflection point)
CCN(C)S(=O)(=O)Nc1ccc(F)c(Oc2ccc3ncc(OCC4CCN(C5CCC(c6ccc(NC7CCC(=O)NC7=O)cc6F)CC5)CC4)nc3c2)c1C#N (single isomer, unassigned) [Compound 117, 7-[2-cyano-3-[[ethyl(methyl)sulfamoyl]amino]-6-fluoro-phenoxy]-2-[[1-[4-[4-[(2,6-dioxo-3-piperidyl)amino]-2-fluoro-phenyl]cyclohexyl]-4-piperidyl]methoxy]quinoxaline]	< 1000 nM	** (<90% and >50%)	< 1000 nM	< 1000 nM	*** (<=50%)								
Cn1nc(N2CCC(=O)NC2=O)c2cc(F)c(N3CC4(CC(N5CCC6(CC5)C[C@@H](n5cnc7ccc(Oc8c(F)ccc(NS(=O)(=O)C9CC9)c8C#N)cc7c5=O)CO6)C4)C3)cc21 [Compound 234, N-[2-cyano-3-[3-[(3R)-8-[2-[3-(2,4-dioxohexahydropyrimidin-1-yl)-5-fluoro-1-methyl-indazol-6-yl]-2-azaspiro[3.3]heptan-6-yl]-1-oxa-8-azaspiro[4.5]decan-3-yl]-4-oxo-quinazolin-6-yl]oxy-4-fluoro-phenyl]cyclopropanesulfonamide]			< 1000 nM	< 1000 nM		< 1000 nM	50 to 90%	< 50%	< 1000 nM	< 50%	< 1000 nM		
CCN(C)S(=O)(=O)Nc1ccc(F)c(Oc2ccc3ncc(C4CC5(C4)CN(C4CC6(C4)CN(c4cc7c(cc4F)c(N4CCC(=O)NC4=O)nn7C)C6)C5)nc3c2)c1C#N (centres unmarked) [Compound 303, 7-[2-cyano-3-[[ethyl(methyl)sulfamoyl]amino]-6-fluoro-phenoxy]-2-[2-[2-[3-(2,4-dioxohexahydropyrimidin-1-yl)-5-fluoro-1-methyl-indazol-6-yl]-2-azaspiro[3.3]heptan-6-yl]-2-azaspiro[3.3]heptan-6-yl]quinoxaline]			< 1000 nM	1000 to 10000 nM		> 10000 nM	50 to 90%	50 to 90%					
CCN(C)S(=O)(=O)Nc1ccc(F)c(C(=O)c2ccc3ncn(C4CC5(C4)CN(C4CC6(C4)CN(c4cc7c(cc4F)c(N4CCC(=O)NC4=O)nn7C)C6)C5)c(=O)c3c2)c1F (centres unmarked) [Compound 306, 3-[2-[2-[3-(2,4-dioxohexahydropyrimidin-1-yl)-5-fluoro-1-methyl-indazol-6-yl]-2-azaspiro[3.3]heptan-6-yl]-2-azaspiro[3.3]heptan-6-yl]-6-[3-[[ethyl(methyl)sulfamoyl]amino]-2,6-difluoro-benzoyl]-4-oxo-quinazoline]			< 1000 nM	< 1000 nM		> 10000 nM	50 to 90%	50 to 90%					
CCN(C)S(=O)(=O)Nc1ccc(F)c(Oc2ccc3ncc(CCC4CCN(C5CCC(c6ccc(NC7CCC(=O)NC7=O)cc6F)CC5)CC4)nc3c2)c1C#N (single isomer, unassigned) [Compound 132, 7-[2-cyano-3-[[ethyl(methyl)sulfamoyl]amino]-6-fluoro-phenoxy]-2-[2-[1-[4-[4-[(2,6-dioxo-3-piperidyl)amino]-2-fluoro-phenyl]cyclohexyl]-4-piperidyl]ethyl]quinoxaline]	< 1000 nM	** (<90% and >50%)	< 1000 nM	< 1000 nM	*** (<=50%)								
CCN(C)S(=O)(=O)Nc1ccc(F)c(Oc2ccc3ncn([C@H]4CCC5(CCN(C6CCC(c7ccc(NC8CCC(=O)NC8=O)cc7F)CC6)CC5)C4)c(=O)c3c2)c1C#N (single isomer, unassigned) [Compound 25]	< 1000 nM	** (<90% and >50%)	< 1000 nM	1000 to 10000 nM	** (<90% and >50%)								
CCN(C)S(=O)(=O)Nc1ccc(F)c(Oc2ccc3ncn(C4CC5(CCC(N6CC[C@H](c7cc8c(cc7F)c(N7CCC(=O)NC7=O)nn8C)C(F)(F)C6)CC5)C4)c(=O)c3c2)c1C#N (stereo partly drawn) [Compound 224, 6-[2-cyano-3-[[ethyl(methyl)sulfamoyl]amino]-6-fluoro-phenoxy]-3-[7-[(4R)-4-[3-(2,4-dioxohexahydropyrimidin-1-yl)-5-fluoro-1-methyl-indazol-6-yl]-3,3-difluoro-1-piperidyl]spiro[3.5]nonan-2-yl]-4-oxo-quinazoline]			< 1000 nM	< 1000 nM		< 1000 nM	50 to 90%	< 50%					
CCN(C)S(=O)(=O)Nc1ccc(F)c(Oc2ccc3ncn(C4CC5(CCN(C6CC7(C6)CN(c6cc8c(cc6F)c(N6CCC(=O)NC6=O)nn8C)C7)CC5)C4)c(=O)c3c2)c1F (centres unmarked) [Compound 164, 3-[7-[2-[3-(2,4-dioxohexahydropyrimidin-1-yl)-5-fluoro-1-methyl-indazol-6-yl]-2-azaspiro[3.3]heptan-6-yl]-7-azaspiro[3.5]nonan-2-yl]-6-[3-[[ethyl(methyl)sulfamoyl]amino]-2,6-difluoro-phenoxy]-4-oxo-quinazoline]			< 1000 nM	< 1000 nM		1000 to 10000 nM	50 to 90%	50 to 90%					
CCN(C)S(=O)(=O)Nc1ccc(F)c(Oc2ccc3ncn([C@@H]4CCC5(CCN(C6CCC(c7ccc(NC8CCC(=O)NC8=O)cc7F)CC6)CC5)C4)c(=O)c3c2)c1C#N (single isomer, unassigned) [Compound 22]			< 1000 nM	< 1000 nM		> 10000 nM	50 to 90%	50 to 90%					
CCN(C)S(=O)(=O)Nc1ccc(F)c(Oc2ccc3ncc(OC4CCN(C5CCC(c6cc7c(cc6F)c(N6CCC(=O)NC6=O)nn7C)CC5)CC4)nc3c2)c1C#N (single isomer, unassigned) [Compound 124, 7-[2-cyano-3-[[ethyl(methyl)sulfamoyl]amino]-6-fluoro-phenoxy]-2-[[1-[4-[3-(2,4-dioxohexahydropyrimidin-1-yl)-5-fluoro-1-methyl-indazol-6-yl]cyclohexyl]-4-piperidyl]oxy]quinoxaline]			< 1000 nM	1000 to 10000 nM		> 10000 nM	50 to 90%	< 50%					
CCN(C)S(=O)(=O)Nc1ccc(F)c(Oc2ccc3ncn(C4CCC5(CC4)CCN(C4CCC(c6ccc(NC7CCC(=O)NC7=O)cc6F)CC4)CC5)c(=O)c3c2)c1C#N (single isomer, unassigned) [Compound 10, 9-[6-[2-cyano-3-[[ethyl(methyl)sulfamoyl]amino]-6-fluoro-phenoxy]-4-oxo-quinazolin-3-yl]-3-[4-[4-[(2,6-dioxo-3-piperidyl)amino]-2-fluoro-phenyl]cyclohexyl]-3-azaspiro[5.5]undecane]	1000 to 10000 nM	*** (<=50%)	< 1000 nM	> 10000 nM				50 to 90%					
CCN(C)S(=O)(=O)Nc1ccc(F)c(C(=O)c2ccc3ncn(C4CC5(CCN(C6CCC(c7cc8c(cc7F)c(N7CCC(=O)NC7=O)nn8C)CC6)CC5)C4)c(=O)c3c2)c1F (single isomer, unassigned) [Compound 183, 3-[7-[4-[3-(2,4-dioxohexahydropyrimidin-1-yl)-5-fluoro-1-methyl-indazol-6-yl]cyclohexyl]-7-azaspiro[3.5]nonan-2-yl]-6-[3-[[ethyl(methyl)sulfamoyl]amino]-2,6-difluoro-benzoyl]-4-oxo-quinazoline]	1000 to 10000 nM	** (<90% and >50%)	< 1000 nM	< 1000 nM	*** (<=50%)								
Cn1nc(N2CCC(=O)NC2=O)c2cc(F)c(N3CC4(CC(N5CCC6(CC5)C[C@@H](n5cnc7ccc(Oc8c(F)ccc(NS(=O)(=O)N9CCC%10(CC%10)C9)c8C#N)cc7c5=O)CO6)C4)C3)cc21 [Compound 245, N-[2-cyano-3-[3-[(3R)-8-[2-[3-(2,4-dioxohexahydropyrimidin-1-yl)-5-fluoro-1-methyl-indazol-6-yl]-2-azaspiro[3.3]heptan-6-yl]-1-oxa-8-azaspiro[4.5]decan-3-yl]-4-oxo-quinazolin-6-yl]oxy-4-fluoro-phenyl]-5-azaspiro[2.4]heptane-5-sulfonamide]						< 1000 nM	50 to 90%	50 to 90%				< 1000 nM	< 1000 nM
